From patent publication US20260130395A1, “Water Dispersible Botanical Compositions” (Aquila Black Limited, priority 2021, published 2026)

Test: Stability of cannabinoid compounds and Vitamin E components in Beverage 2 (AB Red) by LCMSMS
Format: physicochemical

CCCCCc1cc(O)c2c(c1)OC(C)(CCC=C(C)C)C=C2 (centres unmarked) [CBC, cannabichromene]
Stability of Plant-Derived Cannabinoid Compounds in AB Red (stored at 8° C., 0 days): 0.290 µg/mL | Stability of Plant-Derived Cannabinoid Compounds in AB Red (stored at 8° C., 1 days): 0.289 µg/mL | Stability of Plant-Derived Cannabinoid Compounds in AB Red (stored at 8° C., 2 days): 0.292 µg/mL | Stability of Plant-Derived Cannabinoid Compounds in AB Red (stored at 8° C., 3 days): 0.285 µg/mL | Stability of Plant-Derived Cannabinoid Compounds in AB Red (stored at 8° C., 5 days): 0.286 µg/mL | Stability of Plant-Derived Cannabinoid Compounds in AB Red (stored at 8° C., 8 days): 0.286 µg/mL | Stability of Plant-Derived Cannabinoid Compounds in AB Red (stored at 8° C., 9 days): 0.288 µg/mL | Stability of Plant-Derived Cannabinoid Compounds in AB Red (stored at 8° C., 10 days): 0.288 µg/mL | Stability of Plant-Derived Cannabinoid Compounds in AB Red (stored at 8° C., 11 days): 0.284 µg/mL | Stability of Plant-Derived Cannabinoid Compounds in AB Red (stored at 8° C., 12 days): 0.285 µg/mL | Stability of Plant-Derived Cannabinoid Compounds in AB Red (stored at 8° C., 15 days): 0.292 µg/mL | Stability of Plant-Derived Cannabinoid Compounds in AB Red (stored at 8° C., 16 days): 0.283 µg/mL | Stability of Plant-Derived Cannabinoid Compounds in AB Red (stored at 8° C., 17 days): 0.282 µg/mL | Stability of Plant-Derived Cannabinoid Compounds in AB Red (stored at 8° C., 18 days): 0.289 µg/mL | Stability of Plant-Derived Cannabinoid Compounds in AB Red (stored at 8° C., 19 days): 0.287 µg/mL | Stability of Plant-Derived Cannabinoid Compounds in AB Red (stored at 8° C., 22 days): 0.287 µg/mL | Stability of Plant-Derived Cannabinoid Compounds in AB Red (stored at 8° C., 23 days): 0.287 µg/mL | Stability of Plant-Derived Cannabinoid Compounds in AB Red (stored at 8° C., 24 days): 0.291 µg/mL | Stability of Plant-Derived Cannabinoid Compounds in AB Red (stored at 8° C., 25 days): 0.287 µg/mL | Stability of Plant-Derived Cannabinoid Compounds in AB Red (stored at 8° C., 26 days): 0.287 µg/mL | Stability of Plant-Derived Cannabinoid Compounds in AB Red (stored at 8° C., 29 days): 0.284 µg/mL | Stability of Plant-Derived Cannabinoid Compounds in AB Red (stored at 8° C., 30 days): 0.282 µg/mL | Stability of Plant-Derived Cannabinoid Compounds in AB Red (stored at 8° C., 60 days): 0.278 µg/mL | Stability of Plant-Derived Cannabinoid Compounds in AB Red (stored at 8° C., 90 days): 0.287 µg/mL | Stability of Plant-Derived Cannabinoid Compounds in AB Red (stored at 8° C., 120 days): 0.289 µg/mL | Stability of Plant-Derived Cannabinoid Compounds in AB Red (stored at 8° C., 150 days): 0.281 µg/mL | Stability of Plant-Derived Cannabinoid Compounds in AB Red (stored at 8° C., 180 days): 0.285 µg/mL | Stability of Plant-Derived Cannabinoid Compounds in AB Red (stored at 8° C., 210 days): 0.282 µg/mL | Stability of Plant-Derived Cannabinoid Compounds in AB Red (stored at 8° C., 240 days): 0.280 µg/mL | Stability of Plant-Derived Cannabinoid Compounds in AB Red (stored at 8° C., 270 days): 0.284 µg/mL | Stability of Plant-Derived Cannabinoid Compounds in AB Red (stored at 8° C., 300 days): 0.280 µg/mL | Stability of Plant-Derived Cannabinoid Compounds in AB Red (stored at 8° C., 330 days): 0.278 µg/mL | Stability of Plant-Derived Cannabinoid Compounds in AB Red (stored at 8° C., 360 days): 0.282 µg/mL | Stability of Plant-Derived Cannabinoid Compounds in AB Red (stored at 8° C., 390 days): 0.282 µg/mL | Stability of Plant-Derived Cannabinoid Compounds in AB Red (stored at 8° C., 420 days): 0.277 µg/mL | Stability of Plant-Derived Cannabinoid Compounds in AB Red (stored at 8° C., 450 days): 0.282 µg/mL | Stability of Plant-Derived Cannabinoid Compounds in AB Red (stored at 8° C., 480 days): 0.274 µg/mL | Stability of Plant-Derived Cannabinoid Compounds in AB Red (stored at 8° C., 510 days): 0.267 µg/mL | Stability of Plant-Derived Cannabinoid Compounds in AB Red (stored at 8° C., 540 days): 0.271 µg/mL | Stability of Plant-Derived Cannabinoid Compounds in AB Red (stored at 8° C., 570 days): 0.266 µg/mL | Stability of Plant-Derived Cannabinoid Compounds in AB Red (stored at 21-25° C., 0 days): 0.29 µg/mL | Stability of Plant-Derived Cannabinoid Compounds in AB Red (stored at 21-25° C., 1 days): 0.28 µg/mL | Stability of Plant-Derived Cannabinoid Compounds in AB Red (stored at 21-25° C., 2 days): 0.28 µg/mL | Stability of Plant-Derived Cannabinoid Compounds in AB Red (stored at 21-25° C., 3 days): 0.29 µg/mL | Stability of Plant-Derived Cannabinoid Compounds in AB Red (stored at 21-25° C., 5 days): 0.28 µg/mL | Stability of Plant-Derived Cannabinoid Compounds in AB Red (stored at 21-25° C., 8 days): 0.28 µg/mL | Stability of Plant-Derived Cannabinoid Compounds in AB Red (stored at 21-25° C., 9 days): 0.28 µg/mL | Stability of Plant-Derived Cannabinoid Compounds in AB Red (stored at 21-25° C., 10 days): 0.29 µg/mL | Stability of Plant-Derived Cannabinoid Compounds in AB Red (stored at 21-25° C., 11 days): 0.29 µg/mL | Stability of Plant-Derived Cannabinoid Compounds in AB Red (stored at 21-25° C., 12 days): 0.28 µg/mL | Stability of Plant-Derived Cannabinoid Compounds in AB Red (stored at 21-25° C., 15 days): 0.28 µg/mL | Stability of Plant-Derived Cannabinoid Compounds in AB Red (stored at 21-25° C., 16 days): 0.28 µg/mL | Stability of Plant-Derived Cannabinoid Compounds in AB Red (stored at 21-25° C., 17 days): 0.28 µg/mL | Stability of Plant-Derived Cannabinoid Compounds in AB Red (stored at 21-25° C., 18 days): 0.29 µg/mL | Stability of Plant-Derived Cannabinoid Compounds in AB Red (stored at 21-25° C., 19 days): 0.29 µg/mL | Stability of Plant-Derived Cannabinoid Compounds in AB Red (stored at 21-25° C., 22 days): 0.29 µg/mL | Stability of Plant-Derived Cannabinoid Compounds in AB Red (stored at 21-25° C., 23 days): 0.28 µg/mL | Stability of Plant-Derived Cannabinoid Compounds in AB Red (stored at 21-25° C., 24 days): 0.29 µg/mL | Stability of Plant-Derived Cannabinoid Compounds in AB Red (stored at 21-25° C., 25 days): 0.28 µg/mL | Stability of Plant-Derived Cannabinoid Compounds in AB Red (stored at 21-25° C., 26 days): 0.28 µg/mL | Stability of Plant-Derived Cannabinoid Compounds in AB Red (stored at 21-25° C., 29 days): 0.29 µg/mL | Stability of Plant-Derived Cannabinoid Compounds in AB Red (stored at 21-25° C., 30 days): 0.29 µg/mL | Stability of Plant-Derived Cannabinoid Compounds in AB Red (stored at 21-25° C., 60 days): 0.29 µg/mL | Stability of Plant-Derived Cannabinoid Compounds in AB Red (stored at 21-25° C., 90 days): 0.28 µg/mL | Stability of Plant-Derived Cannabinoid Compounds in AB Red (stored at 21-25° C., 120 days): 0.29 µg/mL | Stability of Plant-Derived Cannabinoid Compounds in AB Red (stored at 21-25° C., 150 days): 0.29 µg/mL | Stability of Plant-Derived Cannabinoid Compounds in AB Red (stored at 21-25° C., 180 days): 0.28 µg/mL | Stability of Plant-Derived Cannabinoid Compounds in AB Red (stored at 21-25° C., 210 days): 0.29 µg/mL | Stability of Plant-Derived Cannabinoid Compounds in AB Red (stored at 21-25° C., 240 days): 0.28 µg/mL | Stability of Plant-Derived Cannabinoid Compounds in AB Red (stored at 21-25° C., 270 days): 0.29 µg/mL | Stability of Plant-Derived Cannabinoid Compounds in AB Red (stored at 21-25° C., 300 days): 0.29 µg/mL | Stability of Plant-Derived Cannabinoid Compounds in AB Red (stored at 21-25° C., 330 days): 0.29 µg/mL | Stability of Plant-Derived Cannabinoid Compounds in AB Red (stored at 21-25° C., 360 days): 0.28 µg/mL | Stability of Plant-Derived Cannabinoid Compounds in AB Red (stored at 21-25° C., 390 days): 0.28 µg/mL | Stability of Plant-Derived Cannabinoid Compounds in AB Red (stored at 21-25° C., 420 days): 0.28 µg/mL | Stability of Plant-Derived Cannabinoid Compounds in AB Red (stored at 21-25° C., 450 days): 0.28 µg/mL | Stability of Plant-Derived Cannabinoid Compounds in AB Red (stored at 21-25° C., 480 days): 0.28 µg/mL | Stability of Plant-Derived Cannabinoid Compounds in AB Red (stored at 21-25° C., 510 days): 0.27 µg/mL | Stability of Plant-Derived Cannabinoid Compounds in AB Red (stored at 21-25° C., 540 days): 0.28 µg/mL | Stability of Plant-Derived Cannabinoid Compounds in AB Red (stored at 21-25° C., 570 days): 0.27 µg/mL
